We go through two compounds from PMC9320886, “Daily Intraperitoneal Administration of Rosiglitazone Does Not Improve Lung Function or Alveolarization in Preterm Rabbits Exposed to Hyperoxia” (Pharmaceutics, 2022).

Like-named read-outs stand apart in the source and are kept apart here.

The subject of one series is db/db diabetic mice. Also noted: method as in PMID 11600232, PMID 28656106. To be noted: compared with RGZ and PGZ; cited from earlier work.
The subject of another series is Caco-2 cell monolayers. Put plainly: Caco-2 permeability assay. Format: in vitro ADME. As to the method: (§1) Caco-2 cells were purchased from ReadyCell (Barcelona, Spain). The cells arrived already seeded and differentiated (21-days) in 96-well plates (CacoReady 96-well kits, ReadyCell). Cells were maintained in a cell culture medium: Dulbecco’s modified Eagle’s medium (DMEM) 1 g/L glucose containing 10% fetal bovine serum, 1% L-glutamine 200 mM, and 1% penicillin (10,000 U/mL)–streptomycin (10 mg/mL), all from Merck KGaA. The buffer used in the assay was Hanks Balanced Salt Solution (HBSS, Merck). Control compounds were: sulpiride (low permeability control), metoprolol (high permeability control), talinolol (P-glycoprotein transport (Pgp) substrate control), and GF120918 (Elacridar, Pgp inhibitor), all purchased from Merck KGaA.
(§2) The day of the experiment, the integrity of the cell monolayers was assessed before and after the assay by measuring the transepithelial electrical resistance (TEER). The permeability of the compounds across the cell monolayer was determined by measuring their transport in both directions: apical to basolateral (A → B) and basolateral to apical (B → A) in the absence and presence of Elacridar (a known P-gp inhibitor). The donor working solution was prepared by dilution of the DMSO stock of the test compound or positive control with HBSS (pH 7.4) to 10 µM. For A → B directional transport, the donor working solution (with test compound or positive control, with or without P-gp inhibitor) was added to the apical (A) and HBSS was added to the basolateral (B) compartment. For B → A directional transport, the donor working solution (with positive control or test compound […], with or without P-gp inhibitor) was added to the basolateral (B) and HBSS was added to the apical (A) compartment. The assay was performed with a Hamilton Star Lab robotic system. Samples were collected at t0 and 2 h after incubation (5% CO2, 95% relative humidity, 37 °C) for LC-MS/MS analyses.
(§3) Apparent permeability (Papp) was calculated with the following equation: (5) Papp(cm/sec)=(Vr/C0)×(1/A)×(Cr(t)/t) where Vr is the volume of the solution in the receiving compartment (mL); C0 is the initial test compound concentration in the donor compartment (expressed as area ratio); A is the membrane surface area (0.14 cm^2); Cr (t) is the measured concentration of the receiver well at time t120 (expressed as area ratio); and t is time of incubation (sec).

The next series has as its target T1, human PPARγ (Homo sapiens, UniProt P37231).
T1 sequence (P37231 1-505): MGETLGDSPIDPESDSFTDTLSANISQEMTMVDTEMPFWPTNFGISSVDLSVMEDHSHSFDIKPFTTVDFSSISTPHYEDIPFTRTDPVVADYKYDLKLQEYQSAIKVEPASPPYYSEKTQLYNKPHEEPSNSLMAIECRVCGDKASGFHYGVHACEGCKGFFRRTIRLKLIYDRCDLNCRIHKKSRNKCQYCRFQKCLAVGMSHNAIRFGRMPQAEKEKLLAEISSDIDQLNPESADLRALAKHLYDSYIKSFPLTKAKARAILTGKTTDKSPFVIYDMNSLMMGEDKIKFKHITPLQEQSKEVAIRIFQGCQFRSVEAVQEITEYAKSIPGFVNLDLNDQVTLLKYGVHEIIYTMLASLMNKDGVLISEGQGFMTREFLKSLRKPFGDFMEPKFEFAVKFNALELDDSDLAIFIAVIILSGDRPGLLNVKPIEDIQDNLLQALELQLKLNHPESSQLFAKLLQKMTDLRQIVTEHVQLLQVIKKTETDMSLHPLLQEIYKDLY
Briefly: human PPARγ nuclear reporter assay (luciferase). To be noted: reporter cells incubated 24 h, luminescence. In general terms: A reporter such as luciferase makes a cellular process visible.

The nature of series [1]: lung tissue binding by equilibrium dialysis. It is filed as in vitro ADME. To be noted: preterm rabbit lung homogenate, 4 h, 37 °C. As to the method: In vitro lung tissue binding was also determined by equilibrium dialysis as described above. Preterm rabbit lungs (New Zealand White, BIOIVT) were homogenized using a Precellys tissue homogenizer (Bertin instruments, Montigny-le-Bretonneux, France). Precellys lysing vials (CK28-R, Bertin instruments) were filled with lung and buffer according to the following proportion: 1 g of tissue and 5 mL of ice-cold PBS (dilution 1:6). At the end of the homogenization process, a pool of lung homogenate was prepared mixing equal amount of homogenate from three different donors. Test compounds and the positive control were diluted in the pooled lung homogenate to a final concentration of […] and then dispensed into the red chamber of the RED device inserts. PBS was dispensed into the other side. Upon completion of 4 h of incubation (37 °C under shaking), equal aliquots were removed from each chamber and matrix matched with even volumes of lung homogenate or buffer for LC-MS/MS analyses.
Free and Bound percentages of the compounds were calculated as follows:(3) %Free=Area buffer sample/Area lung homogenate sample×100 (4) % Bound=100−%Free
Background: Equilibrium dialysis compares concentrations on both sides of a semipermeable membrane.

Series [2] in a line: plasma protein binding by equilibrium dialysis. Format: in vitro ADME. Details: fraction unbound at 4 h: dose or concentration left out as unconfirmed. The note with it: 37 °C. As to the method:
In vitro plasma protein binding was determined in preterm rabbit plasma (New Zealand White Pooled Gender, BIOIVT, Hicksville, NY, USA) by equilibrium dialysis using Thermo Fisher Scientific Pierce RED rapid equilibrium dialysis devices (Device Inserts 8K MWCO, Thermo Fisher Scientific, Waltham, MA, USA). The assay was performed using a Tecan Evoware robotic system (Männedorf, Switzerland). Test compounds and the positive control were diluted in the pooled plasma (three donors) to a final concentration of […] and then dispensed into the red chamber of the RED device inserts. Phosphate-Buffered Saline (PBS, from Merck KGaA, Darmstadt, Germany) was dispensed into the other side. Upon completion of 4 h of incubation (37 °C under shaking), equal aliquots were removed from each chamber and matrix matched with even volumes of plasma or buffer for LC-MS/MS analyses.
Free and Bound percentages of the compounds were calculated as follows:(1) %Free=Area buffer sample/Area plasma sample×100 (2) % Bound=100−%Free

The test system of series [3] is patients with type 2 diabetes. To be noted: type II diabetes patients, compared with RZG; cited from earlier work.
The nature of series [4]: Caco-2 permeability assay. It is filed as in vitro ADME. The note with it: human, apical to basolateral. How it is done:
as §1, §2, §3
For orientation: Caco-2 monolayers are a common model of the intestinal barrier.

The nature of series [5]: Caco-2 permeability assay. Format: in vitro ADME. To be noted: human, basolateral to apical.

Description for human PPARγ: A human PPARγ nuclear reporter assay was purchased from Indigo Biosciences Inc. (Cat. #IB00101, State College, PA, USA) and was performed according to the manufacturer’s instructions. Briefly, the reporter cells of the assays include a luciferase reporter gene functionally linked to a PPARγ-responsive promoter. Thus, quantifying changes in luciferase expression in the treated reporter cells provides a sensitive surrogate measure of the changes in PPARγ activity. […] A sigmoidal dose–response analysis was performed to determine the half-maximal effective concentration (EC50) values for each TZD (GraphPad Prism 8.4.3, San Diego, CA, USA).

For `Cc1nn(CCOc2ccc(CC3SC(=O)NC3=O)cc2)c(=O)c2ccccc12` (stereo not drawn) [DRF-2546], the “plasma glucose and TG reductions” value in the series with db/db diabetic mice was “superior”. In addition, the “Papp (A–B)” value in the series with Caco-2 cell monolayers (apical to basolateral, 10 µM, 2 h, without Pgp inhibitor) was determined as 22.9 ± 0.3 ×10⁻⁶ cm/s. Moreover, the “Papp with Pgp Inhibitor (A–B)” value with Caco-2 cell monolayers (apical to basolateral, with Elacridar) was 28.6 ± 1.5 ×10⁻⁶ cm/s. For the same compound, the “Papp (B–A)” value with Caco-2 cell monolayers (basolateral to apical, 2 h, without Pgp inhibitor) was 18.7 ± 8 ×10⁻⁶ cm/s. Besides, in the series with Caco-2 cell monolayers (basolateral to apical, with Elacridar), the “Papp with Pgp Inhibitor (B–A)” value turned out to be 15.8 ± 3.4 ×10⁻⁶ cm/s. For the same compound, the 50% effective concentration (EC50) (in general, the concentration needed to bring the measured effect to its halfway point) on human PPARγ was 602 nM. Besides, in series [1], the “Lung Tissue Binding (%)” value is listed as 91.8 ± 1.8%. For the same compound, in series [2] (preterm rabbit plasma, 4 h), the “Plasma Protein Binding (%)” value turned out to be 98.4 ± 0.3%.

Turning to `CCc1ccc(CCOc2ccc(CC3SC(=O)NC3=O)cc2)nc1` (stereo not drawn) [PGZ, pioglitazone], the plasma triglycerides entry in series [3] was “significant reduction”. For the same compound, the Papp A→B (commonly the apparent permeability from the apical to the basolateral side of a cell layer) at 2 h, 10 µM in series [4] (Caco-2, pH 7.4, with Elacridar (GF120918), concentration not given, with Elacridar, read-out: Papp with Pgp Inhibitor (A–B)) stood at 12.3 ×10⁻⁶ cm/s; in series [4] (Caco-2, pH 7.4, 10 µM, 2 h, without Pgp inhibitor, read-out: Papp (A–B)), 11.8 ×10⁻⁶ cm/s. Also, the Papp B→A (commonly the apparent permeability from the basolateral to the apical side of a cell layer) at 2 h, 10 µM in series [5] (Caco-2, pH 7.4, with Elacridar (GF120918), concentration not given, with Elacridar, read-out: Papp with Pgp Inhibitor (B–A) (converted)) is 25.4 ×10⁻⁶ cm/s; in series [5] (Caco-2, pH 7.4, 2 h, without Pgp inhibitor, read-out: Papp (B–A) (converted)), 15.3 ×10⁻⁶ cm/s. Also, the “Lung Tissue Binding (%)” value in series [1] turned out to be 95.6 ± 2.1%. For the same compound, in series [2] (both sexes, New Zealand White, preterm rabbit plasma (pooled)), the fraction unbound (commonly the share of the substance not bound to proteins or other matrix) at 4 h is 0.033.
